# Test results as given in patent US9241486B2, “Combination and methods for controlling turfgrass pests” (Bayer CropScience LP, priority 2012, dated 2016).
# Columns and labels:
# Type in all cases: in vivo
# [1] = test system: Southern Chinch Bug (Blissus insularis); test: Field plot trial on St. Augustine grass infested with Southern Chinch Bug, number of live bugs (Example 1); details: for Number of Chinch bugs 0 Days After Application / Number of Chinch bugs 4 Days After Application / Number of chinch bugs 7 Days After Application / Number of chinch bugs 18 Days After Application: spray, 40 gallons water per acre, spirotetramat 111 g/ha, azadirachtin 222 g/ha, imidacloprid + azadirachtin 111 + 222 g/ha; for Control of Southern chinch bugs (in words): Example 1, summary of Table 1
# Procedure: Plots approximately 6 feet by 10 feet with three replicates and planted with St. Augustine grass are infested with the Southern Chinch Bug (Blissus insularis). Using a sprayer (research back pack sprayers), Spirotetramat (MOVENTO 240 SC) on its own, azadirachtin (AZATIN XL) on its own, and a mixture of imidacloprid (MERIT 240 SC) and azadirachtin, are applied at the application rates specified. The water application rate is 40 gallons per acre. The evaluation is performed 0 days, 4 days, 7 days, and 18 days after the treatment by determining the number of live Southern Chinch Bugs.
# [2] = test system: Southern Chinch Bug (Blissus insularis); test: Field plot trial on St. Augustine grass infected with Southern chinch bug, number of chinch bugs (Example 2); details: for Number of chinch bugs at 0 Days / Number of chinch bugs at 5 days / Number of chinch bugs at 13 days / Number of chinch bugs at 29 days / Number of chinch bugs at 41 days / Number of chinch bugs at 58 days: Allectus 1083 g ai/ha total, imidacloprid 448.8 g ai/ha, spirotetramat 175.8 g ai/ha, mixture 175.8 + 448.8 g ai/ha; for Number of chinch bugs at 5 days: 5 days after treatment; for Number of chinch bugs at 13 days: 13 days after treatment; for Number of chinch bugs at 29 days: 29 days after treatment; for Number of chinch bugs at 41 days: 41 days after treatment; for Number of chinch bugs at 58 days: 58 days after treatment; for Control of Southern chinch bugs (in words): Example 2, summary of Table 2, up to 58 days after treatment
# Text: (§1) Plots approximately 30 ft by 10 ft with 3 replicates and planted with St. Augustine grass are infected with Southern chinch bug (Blissus insularis). Using a pneumatic sprayer, a mixture of the spirotetramat (MOVENTO 240 SC) and imidacloprid (MERIT 240 SC) is applied in comparision to the spirotetramat (MOVENTO 240 SC) on its own, the imidacloprid (MERIT 240 SC) on its own, and the gold standard Pyrethrin treatment ALLECTUS™ (imidacloprid+bifenthrin), at the application rates specified. The water application rate is 40 gallons per acre. The evaluation is performed 0 days, 5 days, 13 days, 29 days, 41 days, and 58 days after the treatment by determining the number of chinch bugs and the chlorophyll content of the grass. The higher the chlorophyll content of the grass, the greener and lusher the grass is.
# [3] = test system: St. Augustine grass; test: Chlorophyll content of St. Augustine grass infected with Southern chinch bug (Example 2); details: Allectus 1083 g ai/ha total, imidacloprid 448.8 g ai/ha, spirotetramat 175.8 g ai/ha, mixture 175.8 + 448.8 g ai/ha; for Chlorophyll Content 5 days: 5 days after treatment; for Chlorophyll Content 13 days: 13 days after treatment; for Chlorophyll Content 41 days: 41 days after treatment; for Chlorophyll Content 58 days: 58 days after treatment
# Text: as §1
compound,measurement,setting,value
"C/C=C(\C)C(=O)O[C@H]1C[C@@H](OC(C)=O)[C@@]2(C(=O)OC)CO[C@H]3[C@@H](O)[C@@](C)([C@]45O[C@@]4(C)[C@H]4C[C@@H]5O[C@@H]5OC=C[C@@]54O)[C@H]4[C@]1(CO[C@]4(O)C(=O)OC)[C@@H]32 [Azadirachtin, azadirachtin]",Number of Chinch bugs 0 Days After Application,[1],12
same,Number of Chinch bugs 4 Days After Application,[1],15
same,Number of chinch bugs 7 Days After Application,[1],5
same,Number of chinch bugs 18 Days After Application,[1],11
"O=[N+]([O-])/N=C1\NCCN1Cc1ccc(Cl)nc1 [Imidacloprid, imidacloprid]",Number of chinch bugs at 0 Days,[2],50
same,Number of chinch bugs at 5 days,[2],19
same,Number of chinch bugs at 13 days,[2],41
same,Number of chinch bugs at 29 days,[2],30
same,Number of chinch bugs at 41 days,[2],65
same,Number of chinch bugs at 58 days,[2],9
same,Control of Southern chinch bugs (in words),[2],neither spirotetramat or imidacloprid alone provided good control
same,Control of Southern chinch bugs (in words),[1],none of the compounds provided good control
same,Chlorophyll Content 5 days,[3],2.733
same,Chlorophyll Content 13 days,[3],3.215
same,Chlorophyll Content 41 days,[3],3.185
same,Chlorophyll Content 58 days,[3],3.250
CCOC(=O)OC1=C(c2cc(C)ccc2C)C(=O)N[C@]12CC[C@@H](OC)CC2 [Spirotetramat],Number of chinch bugs at 0 Days,[2],50
same,Number of chinch bugs at 5 days,[2],45
same,Number of chinch bugs at 13 days,[2],73
same,Number of chinch bugs at 29 days,[2],45
same,Number of chinch bugs at 41 days,[2],83
same,Number of chinch bugs at 58 days,[2],26
same,Control of Southern chinch bugs (in words),[2],neither spirotetramat or imidacloprid alone provided good control
same,Number of Chinch bugs 0 Days After Application,[1],6
same,Number of Chinch bugs 4 Days After Application,[1],12
same,Number of chinch bugs 7 Days After Application,[1],6
same,Number of chinch bugs 18 Days After Application,[1],10
same,Control of Southern chinch bugs (in words),[1],none of the compounds provided good control
same,Chlorophyll Content 5 days,[3],3.338
same,Chlorophyll Content 13 days,[3],3.250
same,Chlorophyll Content 41 days,[3],2.292
same,Chlorophyll Content 58 days,[3],2.149
